Measurements reported in patent US11730723B2, “Compounds and methods for treating viral infections” (priority 2020, dated 2023).
pEC50, pIC50: −log10 of the molar value. Values after ≈ are worked out from the molar mass of the structure shown. Values joined by “and” are separate entries in the source; they are usually repeats but may differ in a detail not shown here. Identical values can stand only once. Like-named read-outs stand apart in the source and are kept apart here.

What was measured:
HCoV-OC43 [1] = test: HCoV-OC43 CPE assay in Huh-7 cells (neutral red uptake, 6 days); assay type: cell-based, human coronavirus (HCoV) OC43 strain; settings: for Raw OD-Absorbance 490 nm: infected Huh-7, neutral red uptake, individual replicates
HCoV-OC43 [2] = test: HCoV-OC43 efficacy in H292 cells (MTT, 6 days); assay type: cell-based, HCoV-OC43 (Betacoronavirus 1)
HCoV 229E = HCoV 229E CPE assay in MRC-5 cells (CellTiter Glo); assay type: cell-based, human coronavirus (HCoV) 229E; settings: unidentified human coronavirus, MRC5; MRC-5 cells, CellTiter Glo; read-out: HCoV 229E CPE assay EC50
HCoV OC43 = HCoV OC43 CPE assay in Huh7 cells (CellTiter Glo); assay type: cell-based, human coronavirus (HCoV) OC43; settings: Betacoronavirus 1, OC43, Huh-7; Huh7 cells, CellTiter Glo; read-out: HCoV OC43 CPE Assay EC50
[3] = system: MERS coronavirus (EMC strain); test: microbe, parasite or virus in culture; assay type: cell-based, MERS-CoV; settings: Middle East respiratory syndrome-related coronavirus
[4] = Cytotoxicity in HepG2 2.2.15 cells (MTS); assay type: cell-based; settings: human, same assay plate
[5] = system: SARS-CoV-2 (USA-WA1/2020); settings: Compound 1 at 25 μM; HCQ at 5 μM; remdesivir 10 μM
Vero E6 cells = settings: for viability of Vero E6 cells (percent of vehicle alone): 2-day treatment, mean ± SD of duplicates
in vitro [6] = settings: African green monkey
in vitro [7] = settings: African green monkey, Vero 76 cells
in vitro [8] = settings: African green monkey; remark: listed apart in the source
[9] = system: SARS-CoV-2 (USA-WA1/2020); test: microbe, parasite or virus in culture
[10] = Cytotoxicity on Huh7 cells (CellTiter Glo); settings: human, Huh7 cells without virus
H292 cells (NCI-H292) = test: Cytotoxicity in uninfected H292 cells (MTT); settings: CC50, uninfected H292 cells
[11] = Cytotoxicity on MRC-5 cells (CellTiter Glo); settings: human, MRC-5 cells without virus
[12] = system: alpha coronavirus 229E (CoV-229E); test: CoV-229E virus-induced CPE inhibition in MRC-5 cells (XTT); settings: 6 days
[13] = system: HBV wild-type strain ayw1; test: Primary anti-HBV assay in HepG2 2.2.15 cells (qPCR of HBV DNA); settings: Hepatitis B virus, HepG2 2.2.15, 144 h
Huh-7 cells = test: Cytotoxicity / viability of uninfected Huh-7 cells (XTT, 6 days); settings: 6 days, raw absorbance 490 nm, individual replicates, listed as Compd. 1
[14] = system: dengue virus (DENV) serotype 2 strain D2S221; test: Dengue virus D2S221 inhibition assay in Vero cells (immunostaining); settings: read-out: D2S221 IC50

With `CC(C)C[C@](C)(N)COc1ccc(-c2ccnc(C(F)F)c2)nc1C(F)F` [Compound 1, (S)-1-((2′,6-bis(difluoromethyl)-[2,4′-bipyridin]-5-yl)oxy)-2,4-dimethylpentan-2-amine] the pEC50 (HCoV-OC43 [1]; Betacoronavirus 1, OC43, 144 h, Huh-7 cells, 6 days, neutral red) was < 4.52, the inhibition at 0.01 µM (HCoV-OC43 [1]; Betacoronavirus 1, OC43, Huh-7, 0.01 μM, mean of duplicates, read-out: Inhibition of OC43 Virus-Induced CPE in Huh-7 Cells) was -0.4% and the inhibition at 0.04 µM (HCoV-OC43 [1]; Betacoronavirus 1, OC43, Huh-7, 0.04 μM, mean of duplicates, read-out: Inhibition of OC43 Virus-Induced CPE in Huh-7 Cells) was -3%. The inhibition at 0.12 µM (HCoV-OC43 [1]; Betacoronavirus 1, OC43, Huh-7, 0.12 μM, mean of duplicates, read-out: Inhibition of OC43 Virus-Induced CPE in Huh-7 Cells) was -1.2%, the inhibition at 0.4 µM (HCoV-OC43 [1]; Betacoronavirus 1, OC43, Huh-7, 0.4 μM, mean of duplicates, read-out: Inhibition of OC43 Virus-Induced CPE in Huh-7 Cells) was -1.8% and the inhibition at 1.1 µM (HCoV-OC43 [1]; Betacoronavirus 1, OC43, Huh-7, 1.1 μM, mean of duplicates, read-out: Inhibition of OC43 Virus-Induced CPE in Huh-7 Cells) was 5.4%. For the same molecule, the inhibition at 3.3 µM (HCoV-OC43 [1]; Betacoronavirus 1, OC43, Huh-7, 3.3 μM, mean of duplicates, read-out: Inhibition of OC43 Virus-Induced CPE in Huh-7 Cells) was 25.2%, the inhibition at 10 µM (HCoV-OC43 [1]; Betacoronavirus 1, OC43, Huh-7, 10 μM, mean of duplicates, read-out: Inhibition of OC43 Virus-Induced CPE in Huh-7 Cells) was 30.7% and the inhibition at 30 µM (HCoV-OC43 [1]; Betacoronavirus 1, OC43, Huh-7, 30 μM, mean of duplicates, read-out: Inhibition of OC43 Virus-Induced CPE in Huh-7 Cells) was -7.1%. For the same molecule, the “Raw OD-Absorbance 490 nm” value (HCoV-OC43 [1]; 0.01 μM, listed as Compd. 1) was 0.102 and 0.101, the “Raw OD-Absorbance 490 nm” value (HCoV-OC43 [1]; 0.04 μM, listed as Compd. 1) was 0.078 and 0.089 and the “Raw OD-Absorbance 490 nm” value (HCoV-OC43 [1]; 0.12 μM, listed as Compd. 1) was 0.092 and 0.099. For the same molecule, the “Raw OD-Absorbance 490 nm” value (HCoV-OC43 [1]; 0.4 μM) was 0.092, the “Raw OD-Absorbance 490 nm” value (HCoV-OC43 [1]; 1.1 μM, listed as Compd. 1) was 0.115 and 0.165 and the “Raw OD-Absorbance 490 nm” value (HCoV-OC43 [1]; 3.3 μM, listed as Compd. 1) was 0.292 and 0.253. For the same molecule, the “Raw OD-Absorbance 490 nm” value (HCoV-OC43 [1]; 10 μM, listed as Compd. 1) was 0.322 and 0.297, the “Raw OD-Absorbance 490 nm” value (HCoV-OC43 [1]; 30 μM, listed as Compd. 1) was 0.057 and 0.056 and the pEC50 (HCoV-OC43 [2]; Betacoronavirus 1, NCI-H292, EC50, HCoV-OC43 infected H292 cells, MTT, read-out: Efficacy) was 5.84. For the same molecule, the “antiviral activity against β-coronavirus OC43 in H292 cells (in words)” value (HCoV-OC43 [2]; viability of infected H292 cells, FIG. 6) was “significant antiviral effect”, the pEC50 (HCoV 229E) was 5.44 and the pEC50 (HCoV OC43) was 5.22. It also gave an EC50 ([3]; Vero 76, read-out: EC50 measured by microscopic visual assay) of 6.4 µg/mL (≈ 16.6 µM), an EC50 ([3]; Vero 76, read-out: EC50 measured by neutral red assay) of 5.4 µg/mL (≈ 14 µM) and a CC50 [4] of 29.3 µM. The “prevention of the SARS-CoV-2 induced CPE (in words)” value [5] was “partially prevented the virus induced cytopathic effect”, the “viability of Vero E6 cells (percent of vehicle alone)” value (Vero E6 cells; 1.56 μM) was 101.0 ± 5.2% and the “viability of Vero E6 cells (percent of vehicle alone)” value (Vero E6 cells; 3.13 μM) was 97.1 ± 5.2%. The “viability of Vero E6 cells (percent of vehicle alone)” value (Vero E6 cells; 6.3 μM) was 86.2 ± 3.2%, the “viability of Vero E6 cells (percent of vehicle alone)” value (Vero E6 cells; 12.5 μM) was 83.3 ± 1.7% and the “viability of Vero E6 cells (percent of vehicle alone)” value (Vero E6 cells; 25 μM) was 80.7 ± 2.4%. The “viability of Vero E6 cells (percent of vehicle alone)” value (Vero E6 cells; 50 μM) was 17.3 ± 8.4%, the “viability of Vero E6 cells (percent of vehicle alone)” value (Vero E6 cells; 100 μM) was 2.0 ± 0.2% and the “viability of Vero E6 cells (in words)” value (Vero E6 cells; Compound 1 at concentrations lower than 25 μM, HCQ at all concentrations tested) was “not significantly changed”. It also gave a CC50 (in vitro [6]) of 37 µM, a CC50 (in vitro [7]; CC50 measured by microscopic visual assay) of 22 µg/mL (≈ 57.1 µM) and a CC50 (in vitro [7]; CC50 measured by neutral red assay) of 11 µg/mL (≈ 28.5 µM). For the same molecule, the CC50 at 4 days (in vitro [8]) was 13.5 µM, the pIC50 ([9]; Severe acute respiratory syndrome coronavirus 2, Vero C1008, 48 h, read-out: Live SARS-CoV-2 Antiviral Assay IC50) was 4.60 to 4.90 and the viability at 25 µM ([9]; Severe acute respiratory syndrome coronavirus 2, Vero C1008, read-out: cell viability in the infected culture, of the levels observed in uninfected cells) was 80%. The CC50 [10] was 13.2 µM, the Cytotoxicity (H292 cells (NCI-H292)) was 57.72 µM and the CC50 [11] was 15 µM. The pEC50 [12] was ~5.62 and 5.62, the pEC50 [13] was 5.20 and the EC90 [13] was > 100 µM. For the same molecule, the “Viability of Huh-7 Cells (A490)” value (Huh-7 cells; 0.01 μM) was 0.749 and 0.746, the “Viability of Huh-7 Cells (A490)” value (Huh-7 cells; 0.04 μM) was 0.731 and 0.759 and the “Viability of Huh-7 Cells (A490)” value (Huh-7 cells; 0.12 μM) was 0.822 and 0.825. The “Viability of Huh-7 Cells (A490)” value (Huh-7 cells; 0.37 μM) was 0.886 and 0.928, the “Viability of Huh-7 Cells (A490)” value (Huh-7 cells; 1.1 μM) was 0.925 and 0.996 and the “Viability of Huh-7 Cells (A490)” value (Huh-7 cells; 3.3 μM) was 1.017 and 1.085. The “Viability of Huh-7 Cells (A490)” value (Huh-7 cells; 10 μM) was 0.915 and 1.016, the “Viability of Huh-7 Cells (A490)” value (Huh-7 cells; 30 μM) was 0.052 and 0.053 and the “Viability of Huh-7 Cells (A490)” value (Huh-7 cells; 90 μM) was 0.055 and 0.054. The pIC50 [14] was 5.18.
